The text below walks through data of BindingDB's records for doi:10.7270/Q2639NCQ (The Scripps Research Institute Molecular Screening Center, 2013).

As usually defined, the IC50 is the concentration needed to halve the response being measured. Low values mean greater potency, high ones weaker potency.

This experiment deals with T1, Mitochondrial peptide methionine sulfoxide reductase (Bos taurus, UniProt P54149).
T1 sequence (P54149 whole entry): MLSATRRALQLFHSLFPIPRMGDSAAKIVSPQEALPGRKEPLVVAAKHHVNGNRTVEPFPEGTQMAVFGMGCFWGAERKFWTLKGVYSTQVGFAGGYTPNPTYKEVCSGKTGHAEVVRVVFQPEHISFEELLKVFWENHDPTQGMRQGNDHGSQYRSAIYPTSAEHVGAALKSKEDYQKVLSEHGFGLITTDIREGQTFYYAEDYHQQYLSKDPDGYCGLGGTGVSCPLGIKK
Turning to `CCOc1ccc(N(C)S(=O)(=O)c2cc(-c3cc(C)no3)ccc2CC)cc1` [N-(4-ethoxyphenyl)-2-ethyl-N-methyl-5-(3-methyl-1,2-oxazol-5-yl)benzenesulfonamide], the half-inhibitory concentration (IC50) was greater than 155 µM. Then `[O-][N+]1=c2ccc(Nc3ccccc3)cc2=NC12CCCCC2` [1-oxido-N-phenyl-5-spiro[benzimidazol-1-ium-2,1'-cyclohexane]amine], with greater than 155 µM; and `CNS(=O)(=O)c1cccc(C(=O)OCC(=O)c2cc3ccccc3o2)c1` [SMR000364126], with greater than 155 µM; and `CSc1nc2nc3c(c-2c2nn[nH]n12)CCCC3` [MLS000071223], with greater than 155 µM.

`N#Cc1c(-n2cccc2C=O)sc2c1CCCC2` [2-(2-methanoylpyrrol-1-yl)-4,5,6,7-tetrahydro-1-benzothiophene-3-carbonitrile] registered an IC50 greater than 155 µM. Compound `N#Cc1c(NCCCO)nc(-c2ccco2)c2c1CCCC2` yielded a half-maximal inhibitory concentration (IC50) greater than 155 µM. Turning to `COc1cccc(/C=N/n2c(CO)nc3ccccc32)c1OC` [[1-[(E)-(2,3-dimethoxyphenyl)methylideneamino]-2-benzimidazolyl]methanol], the IC50 was greater than 155 µM. In turn, `COC(=O)CN(c1nc(C)c(Br)c(OC)n1)S(=O)(=O)c1ccccc1` [[Benzenesulfonyl-(5-bromo-4-methoxy-6-methyl-pyrimidin-2-yl)-amino]-acetic acid methyl ester] gave an IC50 greater than 155 µM. In turn, `CN(c1ccccc1)S(=O)(=O)c1ccc2[nH]c(O)nc2c1` [N-methyl-2-oxidanylidene-N-phenyl-1,3-dihydrobenzimidazole-5-sulfonamide] registered an IC50 greater than 155 µM.

Take `COC(=O)N1[C@H](C)C=C[C@]1(Cc1ccccc1)C(=O)NCCCNc1ncc(C(F)(F)F)cc1Cl` [(2R,5R)-5-[[3-[[3-chloro-5-(trifluoromethyl)-2-pyridinyl]amino]propylamino]-oxomethyl]-2-methyl-5-(phenylmethyl)-2H-pyrrole-1-carboxylic acid methyl ester]: the IC50 was greater than 155 µM. `CC(Nc1cc(N2CCN(S(=O)(=O)N(C)C)CC2)ccc1[N+](=O)[O-])c1ccccc1` (stereo not drawn) [MLS000676463] gave an IC50 greater than 155 µM. On to `CCOc1cc(S(=O)(=O)N(CC)CC)c(OCC)cc1-n1cnnn1` [2,5-diethoxy-N,N-diethyl-4-(1,2,3,4-tetrazol-1-yl)benzenesulfonamide], for which the IC50 is greater than 155 µM. `O=C1C(Cl)=C(Nc2ccc3cn[nH]c3c2)C(=O)c2ccccc21`: the IC50 is greater than 155 µM. Take `Cc1ccc(/C=C/C(=O)Nc2nccs2)o1` [SMR000261703]: the IC50 is greater than 155 µM. As for `Cc1nn2c(=O)cc(CSc3ccccc3NC(=O)c3ccccc3)nc2s1` [N-[2-[(2-methyl-5-oxo-[1,3,4]thiadiazolo[3,2-a]pyrimidin-7-yl)methylsulfanyl]phenyl]benzamide], the IC50 is greater than 155 µM. For `COc1ccc(NC(=O)COC(=O)C2CCCCC2)c([N+](=O)[O-])c1` [SMR000261453], the IC50 is greater than 155 µM. As for `O=c1oc2ccccc2c2c1cnc1ccccc12` [MLS000518195], the figure is greater than 155 µM.

Take `Cc1c(O)ccc2c(-c3ccccc3)cc(=O)oc12` [7-hydroxy-8-methyl-4-phenyl-1-benzopyran-2-one]: the concentration for half-maximal inhibition (IC50) was greater than 155 µM. In the case of `NC(=O)COc1ccc2oc(=O)cc(-c3cc4ccccc4o3)c2c1` [SMR000641652], the IC50 is greater than 155 µM. As for `CCOc1cc(S(=O)(=O)NC2CC2)c(OCC)cc1-n1cnnn1` [SMR000123810], the figure is greater than 155 µM; as for `C#Cc1cccc(Nc2nc(NCc3ccccc3OC)nc3ccsc23)c1` [MLS003123009], greater than 155 µM; as for `O=C(N/N=C/c1ccc2c(c1)OCO2)c1ccc(Br)o1` [SMR000185016], greater than 155 µM.

The compound `CC(=N)C(C#N)C(=O)CSc1nn(-c2ccc(Cl)cc2)c(=S)s1` (stereo not drawn) yielded an IC50 greater than 155 µM. With `CCOC(=O)C1CCCN(C(=O)c2cnn3c(C(F)F)cc(-c4ccc(C)cc4)nc23)C1` (stereo not drawn) [1-[7-(difluoromethyl)-5-(p-tolyl)pyrazolo[1,5-a]pyrimidine-3-carbonyl]nipecotic acid ethyl ester], the IC50 was greater than 155 µM. `CCc1noc(C)c1C(=O)Nc1nc(-c2cc(C)ccc2C)c(C)s1` [MLS000324834] displayed a half-inhibitory concentration (IC50) greater than 155 µM.

As for `COc1ccc(/C=N/NC(=O)c2cc3cc(OC)c(OC)cc3[nH]2)cc1`, the IC50 was greater than 155 µM. Regarding `O=Cc1cn(-c2ccccc2)nc1-c1ccc(F)cc1` [3-(4-fluorophenyl)-1-phenyl-1H-pyrazole-4-carbaldehyde], the half-inhibitory concentration (IC50) was greater than 155 µM.

Compound `c1ccc2c(c1)CCCN2c1nc2ccccc2n2cnnc12` [4-(3,4-dihydro-2H-quinolin-1-yl)-[1,2,4]triazolo[4,3-a]quinoxaline] registered a 50% inhibitory concentration (IC50) greater than 155 µM. `CC(=O)COc1ccc2oc(=O)cc(-c3cc4ccccc4o3)c2c1` [SMR000641655] registered an IC50 greater than 155 µM. `Cc1nn(Cc2ccc(Cl)cc2)c(=O)n1N(C)c1ncc(C(F)(F)F)cc1Cl` [MLS000541367] displayed an IC50 greater than 155 µM. With `O=C1c2ccccc2C(=O)c2cc(S(=O)(=O)Nc3ccccc3)ccc21` [MLS000585519], the concentration for half-maximal inhibition (IC50) is greater than 155 µM.

As to `Cc1ccccc1Nc1ncnc2n[nH]cc12` [SMR001556847], the IC50 was greater than 155 µM. As for `O=c1cnn(-c2ccccc2)c(-c2ccccc2)c1` [SMR000060054], the figure is greater than 155 µM; as for `Nc1ccccc1Nc1ccc([N+](=O)[O-])cc1[N+](=O)[O-]` [N~1~-(2,4-dinitrophenyl)-1,2-benzenediamine], greater than 155 µM. Compound `O=[N+]([O-])c1cc([N+](=O)[O-])c(N2CCOCC2)cc1NCc1ccccc1` [5-morpholin-4-yl-2,4-dinitro-N-(phenylmethyl)aniline] gave an IC50 greater than 155 µM. The compound `Cc1ccc(Nc2ccc(C(F)(F)F)cc2[N+](=O)[O-])cc1` displayed a half-inhibitory concentration (IC50) greater than 155 µM. As for `COc1ccc2nc(C)cc(N=NCc3ccc(F)cc3)c2c1` [N-[(4-fluorophenyl)methylideneamino]-6-methoxy-2-methyl-4-quinolinamine], half-maximal inhibition (IC50) required 12.8 µM. Consider `COc1cccc(Nc2nc3ccccc3n3nnnc23)c1` [N-(3-methoxyphenyl)-[1,2,3,4]tetrazolo[1,5-a]quinoxalin-4-amine], for which the half-inhibitory concentration (IC50) was greater than 155 µM. Compound `COc1ccc(-c2cc(=O)oc3c(C)c(OC(C)C(C)=O)ccc23)cc1` (stereo not drawn) [4-(4-methoxyphenyl)-8-methyl-7-(3-oxobutan-2-yloxy)-1-benzopyran-2-one] displayed a 50% inhibitory concentration (IC50) greater than 155 µM.

For the compound `COc1ccccc1-c1[nH]nc2c1[C@H](C)CC[C@H]2C(C)C` [(4R,7S)-3-(2-methoxyphenyl)-4-methyl-7-propan-2-yl-4,5,6,7-tetrahydro-1H-indazole], the half-maximal inhibitory concentration (IC50) was greater than 155 µM. With `FC(F)(F)c1ccc(/N=C/c2sc(N3CCOCC3)nc2-c2ccccc2)cc1` [SMR000260329], the IC50 is greater than 155 µM. Regarding `COc1ccc(-c2cc(C(F)F)n3ncc(C(=O)n4ccnc4C)c3n2)cc1` [MLS000581677], the IC50 is greater than 155 µM. As for `CCSc1nc(N2CCOCC2)c2c(c1C#N)CCCC2` [3-(ethylthio)-1-(4-morpholinyl)-5,6,7,8-tetrahydroisoquinoline-4-carbonitrile], the figure is greater than 155 µM. Regarding `Cc1cccc(Nc2oc3cc(=O)ccc-3cc2C(N)=O)c1` [(2Z)-7-hydroxy-2-[(3-methylphenyl)imino]-2H-chromene-3-carboxamide], the half-maximal inhibitory concentration (IC50) is greater than 155 µM. Consider `O=C1C(Cl)=C(NCCCN2CCOCC2)C(=O)N1CCc1ccccc1` [3-chloro-4-{[3-(4-morpholinyl)propyl]amino}-1-(2-phenylethyl)-1H-pyrrole-2,5-dione], for which the 50% inhibitory concentration (IC50) is greater than 155 µM.

As for `CCN(CC)c1ccc(/C=N/NC(=O)CNC(=O)/C=C/c2ccco2)cc1` [MLS000912185], the concentration for half-maximal inhibition (IC50) is greater than 155 µM. With `CCOc1ccc(N(C)S(=O)(=O)c2cc(-c3cc(C)no3)ccc2C(C)C)cc1` [N-(4-ethoxyphenyl)-N-methyl-5-(3-methyl-1,2-oxazol-5-yl)-2-propan-2-yl-benzenesulfonamide], the IC50 was greater than 155 µM. `COc1ccc(CNC(=O)c2c(C)oc3c2C(=O)c2ccccc2C3=O)cc1` showed a half-inhibitory concentration (IC50) greater than 155 µM. `COc1cccc(Nc2nc3cc(OC)ccc3cc2C#N)c1` [7-methoxy-2-(3-methoxyanilino)-3-quinolinecarbonitrile] came in with an IC50 greater than 155 µM. The compound `O=C(O)c1cc(O)c2c(c1)C(=O)c1cccc(O)c1C2=O` [RHEIN] had a concentration for half-maximal inhibition (IC50) greater than 155 µM.

In the case of `CC(=O)N1N=C(c2ccncc2)OC1(Cc1ccccc1)Cc1ccccc1`, the IC50 was greater than 155 µM.

The compound `O=C(O)c1cccc(NS(=O)(=O)c2ccc3c(c2)C(=O)c2ccccc2C3=O)c1` [3-[[9,10-bis(oxidanylidene)anthracen-2-yl]sulfonylamino]benzoic acid] returned a 50% inhibitory concentration (IC50) greater than 155 µM. As for `CC(=O)c1cccc(Oc2cc(NN3CCCCC3)c([N+](=O)[O-])cc2[N+](=O)[O-])c1` [1-[3-[2,4-dinitro-5-(1-piperidinylamino)phenoxy]phenyl]ethanone], the half-inhibitory concentration (IC50) is greater than 155 µM.

In turn, `Cc1ccnc(N2C(=O)c3cccc4c([N+](=O)[O-])ccc(c34)C2=O)c1` [2-(4-Methyl-pyridin-2-yl)-6-nitro-benzo[de]isoquinoline-1,3-dione] gave an IC50 greater than 155 µM. Turning to `CC(N=O)c1cc(C(C)(C)C)c(O)c(C(C)(C)C)c1` (stereo not drawn), the IC50 is greater than 155 µM. Compound `COc1ccc(C=NNC(=O)C(C=Nc2nccc(C)n2)NC(=O)c2ccccc2)cc1` (stereo not drawn) [N-[(E)-3-[(2Z)-2-[(4-methoxyphenyl)methylidene]hydrazinyl]-1-[(4-methylpyrimidin-2-yl)amino]-3-oxidanylidene-prop-1-en-2-yl]benzamide] returned an IC50 of 149 µM. In turn, `c1cnn(-c2cncc(-n3cccn3)n2)c1` [2,6-bis(1-pyrazolyl)pyrazine] yielded an IC50 greater than 155 µM. `CCc1nccn1C(=O)c1cnn2c(C(F)F)cc(-c3ccc(C)cc3)nc12` [7-(difluoromethyl)-3-[(2-ethyl-1H-imidazol-1-yl)carbonyl]-5-(4-methylphenyl)pyrazolo[1,5-a]pyrimidine]: the concentration for half-maximal inhibition (IC50) is greater than 155 µM.
